The values that follow come from patent US20110130386A1, “DNA-PK INHIBITORS” (priority 2008, published 2011).

The target of test [1] is Mammalian DNA-PK (Homo sapiens, UniProt P78527). Description: DNA-PK inhibition assay (ELISA of p53 Ser15 phosphorylation of GST-p53N66). In kind it is biochemical, Mammalian (isolated from HeLa cell nuclear extract). As for the experimental part: In order to assess the inhibitory action of the compounds against DNA-PK in vitro, the following assay was used to determine IC50 values.
To the assay mix, varying concentrations of inhibitor (in DMSO at a final concentration of 1%) were added. After 10 minutes of incubation, ATP was added to give a final concentration of […] along with a 30 mer double stranded DNA oligonucleotide (final concentraion of 0.5 ng/ml) to initiate the reaction. After 1 hour with shaking, 150 μl of phosphate buffered saline (PBS) was added to the reaction and 5 μl then transferred to a 96 well opaque white plate containing 45 μl of PBS per well where the GSTp53N66 substrate was allowed to bind to the wells for 1 hour. To detect the phosphorylation event on the serine 15 residue of p53 elicited by DNA-PK a p53 phosphoserine-15 antibody (Cell Signaling Technology) was used in a basic ELISA procedure. An anti-rabbit HRP conjugated secondary antibody (Pierce) was then employed in the ELISA before the addition of chemiluminescence reagent. (NEN Renaissance) to detect the signal as measured by chemiluminescent counting via a TopCount NXT (Packard).
The enzyme activity for each compound is then calculated using the following equation: […]
The results are discussed below as IC50 values (the concentration at which 50% of the enzyme activity is inhibited). These are determined over a range of different concentrations, normally from 10 μM down to 0.001 μM. Such IC50 values are used as comparative values to identify increased compound potencies.
(In general: An ELISA detects its analyte on a solid surface through an enzyme-linked reagent.)

In test [2] the test system is HeLa cells. Briefly: Survival Enhancement Ratio (clonogenic survival after 2 Gray irradiation). To be noted: example compound of WO 03/024949; concentration not given. Format: cell-based, human. As for the experimental part: The Survival Enhancement Ratio (SER) is a ratio of the enhancement of cell kill elicited by the DNA-PK inhibitor after 2 Grays of irradiation compared to […]. DNA-PK inhibitors were used at a concentration of 25, 50, 100 and/or 500 nM. Radiation was delivered by a Faxitron 43855D machine at a dose rate of 1 Gy pre minute The SER at 2 Gray irradiation was calculated from the formula:
The degree of cell killing was monitored by a standard clonogenic survival assay. Briefly, tissue culture treated 6-well plates were seeded with HeLa cells at an appropriate concentration to give 100-200 colonies per well and returned to the incubator in order to allow the cells to attach. Four hours later, compound or vehicle control was added to the cells. The cells were then incubated for 1 hour in the presence of inhibitor prior to irradiation at 2 Gray using a Faxitron 43855D cabinet X-ray machine. The cells were then incubated for a further 16 hours before the media was replaced with fresh media in the absence of DNA-PK inhibitor. After 8 days, colonies formed were fixed and stained with Giemsa (Sigma, Poole, UK) and scored using an automated colony counter (Oxford Optronics Ltd, Oxford, UK). The data was calculated as described above.

The target of test [3] is PI 3-kinase. The conditions noted are these: stated as the same as for DNA-PK; cited from earlier work.
Test [4] has as its system cells. To be noted: Rosenzweig et al. 1999; cited from earlier work.
Where [5] appears, read: DNA-PK from HeLa nuclear extract, mean value, read-out: mean IC50.

Like-named read-outs stand apart in the source and are kept apart here.

The IC50 is the concentration at which inhibition is half-maximal.

Consider `O=c1cc(N2CCOCC2)oc2c(-c3cccc4c3sc3ccccc34)cccc12` [reference compound], for which the IC50 in test [1] lay in the range of 10 to 12 nM. For the same molecule, the SER in test [2] was 1.3.

Turning to `N#CCNCc1ccc(-c2cccc3c(=O)cc(N4CCOCC4)oc23)c2sc3ccccc3c12` [4ar], the IC50 in test [1] (setting [5]) was found to be 29.7 nM.

As to `CN(C)Cc1ccc(-c2cccc3c(=O)cc(N4CCOCC4)oc23)c2sc3ccccc3c12` [4m], the IC50 in test [1] (setting [5]) came to 293 nM.

For `CC(C)N1CCN(Cc2ccc(-c3cccc4c(=O)cc(N5CCOCC5)oc34)c3sc4ccccc4c23)CC1` [4aa], the IC50 in test [1] (setting [5]) came to 1.75 nM.

In the case of `O=c1cc(N2CCOCC2)oc2c(-c3ccccc3)cccc12` [LY294002], in test [3], the IC50 was roughly 1000 nM. In addition, the “sensitisation of cells to the effects of IR” value in test [4] was “weakly sensitise cells to the effects of IR”.

With `O=c1cc(N2CCOCC2)oc2c(-c3ccc(CN4CCN(CCO)CC4)c4c3sc3ccccc34)cccc12` [4ab], in test [1] (setting [5]), the IC50 turned out to be 1.39 nM.

`O=c1cc(N2CCOCC2)oc2c(-c3ccc(CNCCc4ccccn4)c4c3sc3ccccc34)cccc12` [4aw]: the IC50 in test [1] (setting [5]) turned out to be 69.6 nM.

Turning to `O=c1cc(N2CCOCC2)oc2c(-c3ccc(CN4CCCC(CO)C4)c4c3sc3ccccc34)cccc12` (stereo not drawn) [4r], the concentration for half-maximal inhibition (IC50) in test [1] (setting [5]) was determined as 124 nM.

On to `O=c1cc(N2CCOCC2)oc2c(-c3ccc(CN4CCC(O)C4)c4c3sc3ccccc34)cccc12` (stereo not drawn) [4l], for which the half-maximal inhibitory concentration (IC50) in test [1] (setting [5]) turned out to be 30.3 nM.

In the case of `O=c1cc(N2CCOCC2)oc2c(-c3ccc(CN4CC[C@@H](F)C4)c4c3sc3ccccc34)cccc12` [4bp], in test [1] (setting [5]), the half-inhibitory concentration (IC50) worked out at 170 nM.

Take `CN(CC(=O)O)Cc1ccc(-c2cccc3c(=O)cc(N4CCOCC4)oc23)c2sc3ccccc3c12` [4ac]: the half-maximal inhibitory concentration (IC50) in test [1] (setting [5]) turned out to be 238 nM.

Regarding `O=c1cc(N2CCOCC2)oc2c(-c3ccc(CN4CCCN(CCO)CC4)c4c3sc3ccccc34)cccc12` [4ad], the IC50 in test [1] (setting [5]) was found to be 3.86 nM.

Consider `CC1CC(C)CN(Cc2ccc(-c3cccc4c(=O)cc(N5CCOCC5)oc34)c3sc4ccccc4c23)C1` (stereo not drawn) [4an], for which the IC50 in test [1] (setting [5]) was determined as 1520 nM.

Regarding `CN1CCCC1CCNCc1ccc(-c2cccc3c(=O)cc(N4CCOCC4)oc23)c2sc3ccccc3c12` (stereo not drawn) [4av], in test [1] (setting [5]), the IC50 was found to be 48.6 nM.

As to `O=c1cc(N2CCOCC2)oc2c(-c3ccc(CNCCCN4CCCC4)c4c3sc3ccccc34)cccc12` [4ba], the IC50 in test [1] (setting [5]) amounted to 17.3 nM.

On to `C[C@@H]1COCCN1Cc1ccc(-c2cccc3c(=O)cc(N4CCOCC4)oc23)c2sc3ccccc3c12` [4ak], for which, in test [1] (setting [5]), the half-inhibitory concentration (IC50) was found to be 912 nM.

For the molecule `N#Cc1cccn1NCc1ccc(-c2cccc3c(=O)cc(N4CCOCC4)oc23)c2sc3ccccc3c12` [4cm], the IC50 in test [1] (setting [5]) is 956 nM.

Take `O=c1cc(N2CCOCC2)oc2c(-c3ccc(CN4CCSC4)c4c3sc3ccccc34)cccc12` [4bq]: in test [1] (setting [5]), the IC50 worked out at 433 nM.

In the case of `O=c1cc(N2CCOCC2)oc2c(-c3ccc(CN4CCCCCC4)c4c3sc3ccccc34)cccc12` [4x], in test [1] (setting [5]), the IC50 was 1910 nM.

`O=c1cc(N2CCOCC2)oc2c(-c3ccc(CNCc4ccccc4)c4c3sc3ccccc34)cccc12` [4b]: in test [1] (setting [5]), the IC50 was 248 nM.

For `CN1CCN(Cc2ccc(-c3cccc4c(=O)cc(N5CCOCC5)oc34)c3sc4ccccc4c23)CC1` [4v], the IC50 in test [1] (setting [5]) turned out to be 1.31 nM.

For `CN(Cc1ccc(-c2cccc3c(=O)cc(N4CCOCC4)oc23)c2sc3ccccc3c12)Cc1ccnn1C` [4cc], the half-maximal inhibitory concentration (IC50) in test [1] (setting [5]) was found to be 321 nM.

Consider `O=c1cc(N2CCOCC2)oc2c(-c3ccc(CN4CCOC(CO)C4)c4c3sc3ccccc34)cccc12` (stereo not drawn) [4al], for which the IC50 in test [1] (setting [5]) is 72.5 nM.

In the case of `O=c1cc(N2CCOCC2)oc2c(-c3ccc(CNCCCn4ccnc4)c4c3sc3ccccc34)cccc12` [4ax], in test [1] (setting [5]), the 50% inhibitory concentration (IC50) amounted to 26.5 nM.

Turning to `CN(C)CCNCc1ccc(-c2cccc3c(=O)cc(N4CCOCC4)oc23)c2sc3ccccc3c12` [4d], the half-inhibitory concentration (IC50) in test [1] (setting [5]) is 12.6 nM.
